Measurements taken from ChEMBL document CHEMBL1201862, “PubChem BioAssay data set” (2004).
“And” between values parts separate entries of the source, which are not always exact repeats. Equal entries are not always repeated. Structures can show the parent of a compound that is named as a salt.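 Method: 48-hour compound exposure of cells in 96-well plates, five concentrations, linear interpolation of endpoints. GI50 is the concentration that inhibits growth by half.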 The source made the active and inactive calls. Rule as the data show it: active = GI50 up to about 1.1 µM and inactive = higher.

Legend:
Experiment in all cases: NCI anticancer screen, dose series, 48 h
A549 = system: A549
ACHN = system: ACHN
CCRF-CEM = system: CCRF-CEM
HOP-62 = system: HOP-62
HOP-92 = system: HOP-92
IGROV-1 = system: IGROV-1
LOX IMVI = system: LOX IMVI
M14 = system: M14
NCI-H226 = system: NCI-H226
NCI-H23 = system: NCI-H23
NCI-H522 = system: NCI-H522
OVCAR-8 = system: OVCAR-8
RXF 393 = system: RXF 393
SK-MEL-2 = system: SK-MEL-2
SN12C = system: SN12C
TK-10 = system: TK-10
U-251 = system: U-251
UACC-62 = system: UACC-62
RPMI-8226 = system: RPMI-8226
A498 = system: A498

Compound	GI50 (A549)	GI50 (ACHN)	GI50 (CCRF-CEM)	GI50 (HOP-62)	GI50 (HOP-92)	GI50 (IGROV-1)	GI50 (LOX IMVI)	GI50 (M14)	GI50 (NCI-H226)	GI50 (NCI-H23)	GI50 (NCI-H522)	GI50 (OVCAR-8)	GI50 (RXF 393)	GI50 (SK-MEL-2)	GI50 (SN12C)	GI50 (TK-10)	GI50 (U-251)	GI50 (UACC-62)	GI50 (RPMI-8226)	GI50 (A498)
COc1ccccc1/C=C1\NC(=S)N(/C=C2\C(=O)Oc3ccccc3C2=O)C1=O	51.6 µM (inactive)	55.6 µM (inactive)	23.4 µM (inactive)	> 100 µM (inactive)	7.76 µM (inactive)	26.6 µM (inactive)	60.5 µM (inactive)	64.1 µM (inactive)	14.6 µM (inactive)	35.9 µM (inactive)	39.4 µM (inactive)	36.6 µM (inactive)	38.5 µM (inactive)	62.1 µM (inactive)	> 100 µM (inactive)	33.5 µM (inactive)	23.2 µM (inactive)	23.3 µM (inactive)	–	–
CCC1C[N+]23CCc4c([nH]c5ccccc45)C2CC1CC3 (centres undefined)	–	> 100 µM (inactive)	51.2 µM (inactive)	> 100 µM (inactive)	82.6 µM (inactive)	91.6 µM (inactive)	68.1 µM (inactive)	> 100 µM (inactive)	45.9 µM (inactive)	69.2 µM (inactive)	55.1 µM (inactive)	81.3 µM (inactive)	> 100 µM (inactive)	> 100 µM (inactive)	76.4 µM (inactive)	74.3 µM (inactive)	98.6 µM (inactive)	> 100 µM (inactive)	38.8 µM (inactive)	–
CN(C)CCN(/C(=N/c1ccccc1)N1CCCC1)c1ccccc1	58.3 µM (inactive)	> 100 µM (inactive)	8.69 µM (inactive)	23.4 µM (inactive)	96.8 µM (inactive)	13.7 µM (inactive)	4.06 µM (inactive)	43.7 µM (inactive)	75.9 µM (inactive)	31 µM (inactive)	16.5 µM (inactive)	68.7 µM (inactive)	–	> 100 µM (inactive)	50.5 µM (inactive)	> 100 µM (inactive)	68.5 µM (inactive)	11.9 µM (inactive)	22.6 µM (inactive)	–
NC(=O)Nc1cc(O)ccc1/N=N/c1ccc(S(=O)(=O)Nc2ccccn2)cc1	> 100 µM (inactive)	> 100 µM (inactive)	> 100 µM (inactive)	> 100 µM (inactive)	> 100 µM (inactive)	> 100 µM (inactive)	> 100 µM (inactive)	> 100 µM (inactive)	–	> 100 µM (inactive)	> 100 µM (inactive)	> 100 µM (inactive)	–	> 100 µM (inactive)	> 100 µM (inactive)	> 100 µM (inactive)	> 100 µM (inactive)	> 100 µM (inactive)	> 100 µM (inactive)	> 100 µM (inactive)
O=C1/C(=C/c2ccc(Cl)cc2)CNC/C1=C\c1ccc(Cl)cc1	4.76 µM (inactive)	3.28 µM (inactive)	–	2.43 µM (inactive)	–	1.58 µM (inactive)	1.57 µM (inactive)	3.71 µM (inactive)	2.44 µM (inactive)	1.89 µM (inactive)	1.92 µM (inactive)	2.04 µM (inactive)	–	–	2.59 µM (inactive)	3.95 µM (inactive)	0.782 µM (active)	2.43 µM (inactive)	0.5 µM (active)	4.65 µM (inactive)
Nc1c(Cl)c([N+](=O)[O-])cc2c1OCCCCO2	> 100 µM (inactive)	> 100 µM (inactive)	79.6 µM (inactive)	> 100 µM (inactive)	38.4 µM (inactive)	40.5 µM (inactive)	61.4 µM (inactive)	> 100 µM (inactive)	72.3 µM (inactive)	> 100 µM (inactive)	2.32 µM (inactive)	> 100 µM (inactive)	> 100 µM (inactive)	> 100 µM (inactive)	> 100 µM (inactive)	> 100 µM (inactive)	3.9 µM (inactive)	95.5 µM (inactive)	> 100 µM (inactive)	–
COc1cc(OC)c(SSCCCCS(=O)O)c(OC)c1	19 µM (inactive)	16.1 µM (inactive)	5.45 µM (inactive)	26.2 µM (inactive)	–	21 µM (inactive)	10.7 µM (inactive)	14.3 µM (inactive)	–	15.4 µM (inactive)	6.65 µM (inactive)	16 µM (inactive)	14.5 µM (inactive)	19.5 µM (inactive)	17.6 µM (inactive)	21.3 µM (inactive)	14.5 µM (inactive)	13.7 µM (inactive)	–	14.6 µM (inactive)
COc1ccc(/C=C2\Oc3cc(OC(C)=O)ccc3C2=O)cc1	> 100 µM (inactive)	> 100 µM (inactive)	73.6 µM (inactive)	> 100 µM (inactive)	–	> 100 µM (inactive)	–	> 100 µM (inactive)	> 100 µM (inactive)	> 100 µM (inactive)	19 µM (inactive)	> 100 µM (inactive)	> 100 µM (inactive)	–	> 100 µM (inactive)	> 100 µM (inactive)	> 100 µM (inactive)	> 100 µM (inactive)	57.3 µM (inactive)	–
CC1CC2C3CC(F)C4=CC(=O)C=CC4(C)C3(F)C(O)CC2(C)C1(O)C(=O)COC(=O)C(C)(C)C (centres undefined)	54.6 µM (inactive)	32.7 µM (inactive)	0.0203 µM (active)	75.7 µM (inactive)	> 100 µM (inactive)	64.1 µM (inactive)	> 100 µM (inactive)	> 100 µM (inactive)	> 100 µM (inactive)	> 100 µM (inactive)	71 µM (inactive)	–	18.7 µM (inactive)	> 100 µM (inactive)	–	77.1 µM (inactive)	> 100 µM (inactive)	> 100 µM (inactive)	44.4 µM (inactive)	–
Cn1cnnc1Sc1c([N+](=O)[O-])nc(-c2ccc([N+](=O)[O-])cc2)n1C	> 100 µM (inactive)	18.6 µM (inactive)	10.3 µM (inactive)	> 100 µM (inactive)	19.4 µM (inactive)	17.5 µM (inactive)	13.6 µM (inactive)	16.4 µM (inactive)	20.9 µM (inactive)	18.2 µM (inactive)	6.1 µM (inactive)	18.1 µM (inactive)	–	15.1 µM (inactive)	16.1 µM (inactive)	18.7 µM (inactive)	16.6 µM (inactive)	16.5 µM (inactive)	16.1 µM (inactive)	> 100 µM (inactive)
O=C1c2ccccc2C(=O)c2c1ccc1c2N=C(c2ccc(F)cc2)CC(c2ccc(Cl)c(Cl)c2)N1 (centres undefined)	18.4 µM (inactive)	13.9 µM (inactive)	2.13 µM (inactive)	22 µM (inactive)	22.7 µM (inactive)	10.3 µM (inactive)	3.94 µM (inactive)	18.2 µM (inactive)	22.2 µM (inactive)	16.6 µM (inactive)	7.29 µM (inactive)	13.4 µM (inactive)	–	14 µM (inactive)	17.3 µM (inactive)	13.8 µM (inactive)	12.1 µM (inactive)	12.1 µM (inactive)	3.15 µM (inactive)	19.5 µM (inactive)
O=C(O)c1cccc2cccc(-c3c4ccc(=O)cc-4oc4cc(O)ccc34)c12	> 100 µM (inactive)	> 100 µM (inactive)	69.2 µM (inactive)	16.4 µM (inactive)	–	75 µM (inactive)	> 100 µM (inactive)	> 100 µM (inactive)	–	> 100 µM (inactive)	> 100 µM (inactive)	> 100 µM (inactive)	> 100 µM (inactive)	> 100 µM (inactive)	> 100 µM (inactive)	> 100 µM (inactive)	> 100 µM (inactive)	> 100 µM (inactive)	32.6 µM (inactive)	> 100 µM (inactive)
O=C(O)CN1CCCC(Cc2c[nH]c3ccccc23)C1 (centres undefined)	> 100 µM (inactive)	> 100 µM (inactive)	–	> 100 µM (inactive)	> 100 µM (inactive)	> 100 µM (inactive)	> 100 µM (inactive)	> 100 µM (inactive)	> 100 µM (inactive)	> 100 µM (inactive)	–	> 100 µM (inactive)	> 100 µM (inactive)	> 100 µM (inactive)	–	> 100 µM (inactive)	–	> 100 µM (inactive)	–	–
CC1OC(OC2C(OC(=O)[C@@H]3CC(C)(C)C[C@H]4C5=CC[C@@H]6[C@@]7(C)C[C@H](O)[C@H](OC8OC(CO)C(O)C(O)C8O)[C@@](C)(CO)[C@@H]7[C@H](O)C[C@@]6(C)[C@]5(C)CC[C@@]34C)OCC(O)C2O)C(O)C(O)C1O (some centres undefined)	–	> 7.5 µM (inactive)	> 7.5 µM (inactive)	> 7.5 µM (inactive)	> 7.5 µM (inactive)	> 7.5 µM (inactive)	> 7.5 µM (inactive)	> 7.5 µM (inactive)	> 7.5 µM (inactive)	> 7.5 µM (inactive)	> 7.5 µM (inactive)	> 7.5 µM (inactive)	> 7.5 µM (inactive)	> 7.5 µM (inactive)	> 7.5 µM (inactive)	> 7.5 µM (inactive)	> 7.5 µM (inactive)	> 7.5 µM (inactive)	–	–
Nc1ccc2cc3ccc(N)cc3nc2c1 [PROFLAVINE SULFATE]	–	789 nM (active) and 537 nM (active)	508 nM (active) and 601 nM (active)	2.47 µM (inactive) and 2.21 µM (inactive)	1.45 µM (inactive) and 2.49 µM (inactive)	–	789 nM (active) and 764 nM (active)	–	–	–	–	1.09 µM (active) and 995 nM (active)	–	–	843 nM (active) and 1.04 µM (active)	2.7 µM (inactive) and 4.33 µM (inactive)	–	1.56 µM (inactive) and 1.6 µM (inactive)	1.58 µM (inactive) and 1.43 µM (inactive)	–
